Experimental findings from ChEMBL document CHEMBL5053549, “Discovery of Potent and Novel Dual PARP/BRD4 Inhibitors for Efficient Treatment of Pancreatic Cancer” (J Med Chem, 2021) are described below.

In data set [1] the test system is SW1990. As to the kind of experiment: Inhibition of homologous recombinant repair in human SW1990 cells assessed as reduction in Olaparib-induced Rad51 expression at 1 uM after 4 days in presence of Olaparib by Western blot analysis. The settings on record: time 4.0 day. In kind it is functional, cell-based. (Immunoblotting shows a protein as a band on a membrane.)

Data set [2] concerns SW1990. Kind of data set: Effect on cell cycle progression in human SW1990 cells assessed as reduction in Olaparib-induced PLK1 expression at 1 uM after 4 days in presence of Olaparib by Q-PCR analysis. The settings on record: time 4.0 day. The data set is classed as functional, cell-based.
In data set [3] the test system is SW1990. As to the kind of experiment: Induction of apoptosis in human SW1990 cells assessed as late apoptotic cells at 1 uM after 4 days in presence of 3 uM Olaparib by Annexin V-FITC and propidium iodide staining based flow cytometry (reference value: 6.22%). The settings on record: time 4 day. The data set is classed as functional. (In general: Flow cytometry measures light scatter and fluorescence of single cells or particles in a stream.)

Data set [4] deals with Mus musculus. Kind of data set: Toxicity in BALB/c mouse xenografted with human SW1990 cells assessed as effect on body weight at 15 mg/kg, ip administered for 28 consecutive days in presence of 45 mg/kg Olaparib. The data set is classed as organism-based. The following applies: in vivo, 672 h, time 28 day. On the technique in general: A xenograft is tissue or cells of one species grown in another, often human tumour cells in immunodeficient mice.

Data set [5] concerns SW1990. As to the kind of experiment: Induction of cell cycle arrest in human SW1990 cells assessed as accumulation of cells at G0/G1 phase at 1 uM incubated for 4 days in presence of 3 uM Olaparib by propidium iodide staining based flow cytometry (reference value: 64.79%). The data set is classed as functional. The settings on record: time 4 day.
Data set [6] relates to SW1990. As to the kind of experiment: Induction of DNA damage in human SW1990 cells assessed as increase in gammaH2AX at 4 uM incubated for 4 days by immunofluorescence assay. In kind it is functional, cell-based. The following applies: time 4.0 day.
In data set [7] the test system is Mus musculus. Kind of data set: Toxicity in BALB/c mouse xenografted with human SW1990 cells assessed as lung damage at 15 mg/kg, ip administered for 28 consecutive days by H and E staining based […] microscopic analysis. In kind it is organism-based. The settings on record: in vivo, 672 h, time 28 day.
In data set [8] the test system is Mus musculus. As to the kind of experiment: Toxicity in BALB/c mouse xenografted with human SW1990 cells assessed as effect on body weight at 15 mg/kg, ip administered for 28 consecutive days. The data set is classed as organism-based. The following applies: in vivo, 672 h, time 28 day.
Data set [9] deals with SW1990. As to the kind of experiment: Inhibition of homologous recombinant repair in human SW1990 cells assessed as reduction in Olaparib-induced FOXM1 expression at 1 uM after 4 days in presence of Olaparib by Q-PCR analysis. The data set is classed as functional, cell-based. The following applies: time 4.0 day.
Data set [10] has as its target Poly [ADP-ribose] polymerase 1 (Homo sapiens, UniProt P09874). Kind of data set: Inhibition of PARP1 in human SW1990 cells assessed as reversal of Olaparib-induced PARP1 accumulation in nucleus at 1 uM after 4 days by Western blot analysis. In kind it is cell-based. The settings on record: time 4.0 day.
The subject of data set [11] is SW1990. Kind of data set: Induction of DNA damage in human SW1990 cells assessed as tail DNA at 1 uM incubated for 4 days in presence of 3 uM Olaparib by comet assay. In kind it is functional, cell-based. The following applies: time 4.0 day.
In data set [12] the test system is Mus musculus. Kind of data set: In vivo inhibition of PARP1 expression in human […] cells xenografted in BALB/c mouse assessed as reversal of Olaparib-induced PARP1 accumulation at 15 mg/kg, ip administered for 28 consecutive days in presence of 45 mg/kg Olaparib by Western blot analysis. In kind it is functional, organism-based. The settings on record: time 28.0 day.

Data set [13] deals with Mus musculus. As to the kind of experiment: Toxicity in BALB/c mouse xenografted with human SW1990 cells assessed as liver damage at 15 mg/kg, ip administered for 28 consecutive days by H and E staining based […] microscopic analysis. The settings on record: in vivo, 672 h, time 28 day. In kind it is organism-based.
The test system of data set [14] is SW1990. As to the kind of experiment: Inhibition of homologous recombinant repair in human SW1990 cells assessed as reduction in FOXM1 expression at 4 uM after 4 days by Western blot analysis. The data set is classed as functional, cell-based. The following applies: time 4.0 day.
For data set [15], the system named is Mus musculus. Kind of data set: Inhibition of homologous recombinant repair in human SW1990 cells xenografted in BALB/c mouse assessed as reduction in olaparib-induced FOXM1 expression at 15 mg/kg, ip after 4 days by immunohistochemical analysis. In kind it is functional, organism-based. The settings on record: time 4.0 day.
Data set [16] relates to SW1990. As to the kind of experiment: Inhibition of homologous recombinant repair in human SW1990 cells assessed as reduction in c-Myc expression at 1 to 2 uM after 4 days by Western blot analysis. The data set is classed as functional, cell-based. The following applies: dose 1-2 µM, time 4.0 day.
The subject of data set [17] is SW1990. Kind of data set: Induction of apoptosis in human SW1990 cells assessed as necrotic cells at 2 uM after 4 days by Annexin V-FITC and propidium iodide staining based flow cytometry (reference value: 1.89%). The data set is classed as functional. The settings on record: time 4 day.
Data set [18] deals with T1, Bromodomain-containing protein 4 (Homo sapiens, UniProt O60885). Kind of data set: Inhibition of recombinant BRD4 (unknown origin) incubated for 120 mins by TR-FRET assay.
In data set [19] the test system is SW1990. As to the kind of experiment: Inhibition of homologous recombinant repair in human SW1990 cells assessed as reduction in BRCA1 expression at 1 to 2 uM after 4 days by Western blot analysis. In kind it is functional, cell-based. The following applies: dose 1-2 µM, time 4.0 day.
For data set [20], the system named is SW1990. As to the kind of experiment: Induction of autophagy in human SW1990 cells xenografted in BALB/c mouse assessed as increase in beclin1 expression at 45 mg/kg, ip after 4 days by Q-PCR analysis. The settings on record: time 4.0 day. In kind it is functional, organism-based.
The test system of data set [21] is Mus musculus. Kind of data set: Inhibition of homologous recombinant repair in human SW1990 cells xenografted in BALB/c mouse assessed as reduction in BRCA1 expression at 45 mg/kg, ip after 4 days by immunohistochemical analysis. The data set is classed as functional, organism-based. The following applies: time 4.0 day.
In data set [22] the test system is SW1990. Kind of data set: Induction of autophagy in human SW1990 cells xenografted in BALB/c mouse assessed as increase in LC3B expression at 45 mg/kg, ip after 4 days by Q-PCR analysis. In kind it is functional, organism-based. The following applies: time 4.0 day.
Data set [23] has as its target T1, Bromodomain-containing protein 4. As to the kind of experiment: Inhibition of recombinant BRD4 BD2 (unknown origin) incubated for 120 mins by TR-FRET assay.
Data set [24] has as its system SW1990. As to the kind of experiment: Induction of autophagy in human SW1990 cells xenografted in BALB/c mouse assessed as decrease in p62 expression at 45 mg/kg, ip after 4 days by Western blot analysis. The data set is classed as functional, organism-based. The settings on record: time 4.0 day.
Data set [25] relates to SW1990. As to the kind of experiment: Induction of autophagy in human SW1990 cells xenografted in BALB/c mouse assessed as increase in beclin1 expression at 45 mg/kg, ip after 4 days by Western blot analysis. In kind it is functional, organism-based. The settings on record: time 4.0 day.
The subject of data set [26] is SW1990. Kind of data set: Induction of apoptosis in human SW1990 cells assessed as late apoptotic cells at 2 uM after 4 days by Annexin V-FITC and propidium iodide staining based flow cytometry (reference value: 6.22%). The settings on record: time 4 day. The data set is classed as functional.
Data set [27] has as its system Mus musculus. As to the kind of experiment: Inhibition of homologous recombinant repair in human SW1990 cells xenografted in BALB/c mouse assessed as reduction in Rad51 expression at 45 mg/kg, ip after 4 days by immunohistochemical analysis. In kind it is functional, organism-based. The settings on record: time 4.0 day.
The subject of data set [28] is SW1990. Kind of data set: Effect on cell cycle progression in human SW1990 cells assessed as reduction in PLK1 expression at 1 to 2 uM after 4 days by Q-PCR analysis. In kind it is functional, cell-based. The following applies: dose 1-2 µM, time 4.0 day.
In data set [29] the test system is SW1990. Kind of data set: Effect on cell cycle progression in human SW1990 cells assessed as reduction in CDK6 expression at 1 to 2 uM after 4 days by Q-PCR analysis. The settings on record: dose 1-2 µM, time 4.0 day. The data set is classed as functional, cell-based.
For data set [30], the system named is SW1990. Kind of data set: Induction of autophagy in human SW1990 cells xenografted in BALB/c mouse assessed as increase in LC3B expression at 45 mg/kg, ip after 4 days by Western blot analysis. The settings on record: time 4.0 day. The data set is classed as functional, organism-based.
For data set [31], the system named is Mus musculus. Kind of data set: Toxicity in BALB/c mouse xenografted with human SW1990 cells assessed as heart damage at 45 mg/kg, ip administered for 28 consecutive days by H and E staining based […] microscopic analysis. In kind it is organism-based. The settings on record: in vivo, 672 h, time 28 day.
Data set [32] relates to SW1990. As to the kind of experiment: Effect on cell cycle progression in human SW1990 cells assessed as reduction in PLK1 expression at 1 to 2 uM after 4 days by Western blot analysis. In kind it is functional, cell-based. The following applies: dose 1-2 µM, time 4.0 day.
In data set [33] the test system is Mus musculus. Kind of data set: Inhibition of homologous recombinant repair in human SW1990 cells xenografted in BALB/c mouse assessed as increase in HEX1M1 expression at 45 mg/kg, ip after 4 days by immunohistochemical analysis. In kind it is functional, organism-based. The following applies: time 4.0 day.

Activity calls are given as the source filed them. No cut-off for these calls is given here.

Sequence of Poly [ADP-ribose] polymerase 1 (P09874 whole entry): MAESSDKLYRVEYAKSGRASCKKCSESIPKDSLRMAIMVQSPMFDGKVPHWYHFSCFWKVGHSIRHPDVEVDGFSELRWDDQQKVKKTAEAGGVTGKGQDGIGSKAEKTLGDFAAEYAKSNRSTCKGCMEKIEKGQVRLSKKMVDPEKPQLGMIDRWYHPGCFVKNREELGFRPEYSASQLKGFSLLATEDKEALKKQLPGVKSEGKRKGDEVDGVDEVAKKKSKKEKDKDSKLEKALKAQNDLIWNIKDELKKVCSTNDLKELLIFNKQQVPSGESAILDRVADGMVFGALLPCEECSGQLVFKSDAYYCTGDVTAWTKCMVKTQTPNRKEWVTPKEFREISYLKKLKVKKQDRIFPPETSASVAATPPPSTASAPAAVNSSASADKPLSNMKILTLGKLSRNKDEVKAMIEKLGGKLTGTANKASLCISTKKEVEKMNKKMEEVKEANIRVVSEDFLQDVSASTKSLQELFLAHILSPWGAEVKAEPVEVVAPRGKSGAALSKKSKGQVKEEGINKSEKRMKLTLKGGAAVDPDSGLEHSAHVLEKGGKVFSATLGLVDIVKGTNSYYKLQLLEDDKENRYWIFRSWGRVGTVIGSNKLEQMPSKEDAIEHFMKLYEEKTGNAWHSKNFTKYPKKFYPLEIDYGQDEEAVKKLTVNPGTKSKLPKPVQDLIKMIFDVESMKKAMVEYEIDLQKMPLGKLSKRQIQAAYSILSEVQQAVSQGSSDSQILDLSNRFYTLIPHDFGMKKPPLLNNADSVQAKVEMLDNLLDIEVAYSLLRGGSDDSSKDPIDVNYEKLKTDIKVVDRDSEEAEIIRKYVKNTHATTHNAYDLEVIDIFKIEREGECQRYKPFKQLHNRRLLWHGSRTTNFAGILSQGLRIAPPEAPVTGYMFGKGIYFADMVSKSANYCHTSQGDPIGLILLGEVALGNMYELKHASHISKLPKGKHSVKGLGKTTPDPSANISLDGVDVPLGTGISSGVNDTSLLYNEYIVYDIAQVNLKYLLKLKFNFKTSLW

As for `Cc1sc2c(c1C)C(c1ccc(Cl)cc1)=N[C@@H](CC(=O)OC(C)(C)C)c1nnc(C)n1-2`, the inhibition entry (in the data set with SW1990 [1]; in the data set with SW1990 [9]; in [10]; in the data set on SW1990 [14]) was “Active” each time. Also, the result with SW1990 [2], in the data set with SW1990 [6], in the data set with SW1990 [11] and with Mus musculus [12] was Active. Besides, the Activity in the data set with SW1990 [3] is recorded as 36.2%; in the data set on Mus musculus [4] it was “Non-Toxic”; in the data set on SW1990 [5], 71.53%; in the data set on Mus musculus [7], “Non-Toxic”; with Mus musculus [8] it was “Non-Toxic”; in the data set with Mus musculus [13] it was “Non-Toxic”.
A word on the IC50: it is the concentration needed to halve the response being measured. `CC[C@@H]1C(=O)N(C)c2cnc(N(C)c3ccc(-c4nc5c(C(N)=O)cccc5[nH]4)cc3OC)nc2N1C1CCCC1`: the inhibition result with Mus musculus [15], with SW1990 [16], in the data set with SW1990 [19], in the data set with Mus musculus [21], in the data set on Mus musculus [27] and in the data set with Mus musculus [33] was “Active” each time. Besides, the Activity is on record as 4.56% with SW1990 [17], 40.3% in the data set on SW1990 [26] and “Non-Toxic” with Mus musculus [31]. Also, the IC50 in data set [18] came out at 101 nM; in [23], 157 nM. Besides, the result with SW1990 [20], in the data set with SW1990 [22], in the data set with SW1990 [24], with SW1990 [25], in the data set on SW1990 [28] and in the data set on SW1990 [29] was Active. Further, the result with SW1990 [30] and in the data set on SW1990 [32] was Active.
